Experimental data taken from patent publication US10537575B2, “Phosphodiesterase inhibitors to repair brain and/or retinal injury in human newborns” (priority 2016, dated 2020).

System: Long-Evans rat pups (term neonatal HIE model)
Experiment: Neurons count (NeuN) in cortex at P30
Assay type: in vivo
Conditions: HI; for neuronal number near the infarct boundary zone, median (IQR): ipsilateral cortex
Description: Using the second slide prepared for each animal, an immunohistochemistry was performed to examine the number of mature neurons. Neurons were labeled with an anti-neuronal nuclei (NeuN) antibody (Millipore: MAB377, Billerica, Mass., USA) (dilution 1:500, incubation time 1 hour at room temperature) (Hendrickson M L et al., 2011). Sections then were incubated with the secondary antibody Alexa Fluor® 488 goat anti-rabbit IgG (Molecular Probes®, Life Technologies: A11034, Carlsbad, Calif., USA) (dilution 1:1000, incubation time 2 hours at 4° C.). These sections were rinsed with tris-buffered saline and cover slipped with Vectashield Mounting media containing 4,6-diamidino-2-phenylindole (DAPI) (Vector Laboratories: H1200, Burlingame, Calif., USA) to visualize cell nuclei. Cells co-labeled with NeuN and DAPI were identified as neurons. […] One investigator took pictures of the respective fields of view at 10× magnification.

CCCc1nn(C)c2c(=O)[nH]c(-c3cc(S(=O)(=O)N4CCN(C)CC4)ccc3OCC)nc12 [sildenafil]
neuronal number near the infarct boundary zone, median (IQR) (high-dose sildenafil, p<0.001): 1368 (1292; 1444) neurons/mm^2 | neuronal number in corresponding region of contralateral cortex, median (IQR) (high-dose sildenafil, p<0.001): 1019 (948; 1106) neurons/mm^2 | neuronal number in corresponding region of contralateral cortex, median (IQR) (low-dose sildenafil, not significant): 808 (586; 963) neurons/mm^2 | neuronal number in corresponding region of contralateral cortex, median (IQR) (medium-dose sildenafil, p<0.001): 999 (930; 1107) neurons/mm^2 | neuronal number near the infarct boundary zone, median (IQR) (sildenafil 2 mg/kg, p<0.01): 1118 (1069; 1238) neurons/mm^2 | neuronal number near the infarct boundary zone, median (IQR) (sildenafil 10 mg/kg, p<0.001): 1222 (1170; 1338) neurons/mm^2
